Laboratory results as given in patent US7700106B2, “Therapeutic agent for ulcerative colitis” (priority 2001, dated 2010).

How the values were obtained:
Fusobacterium varium = experiment: Susceptibility of Fusobacterium varium to antimicrobial agents; type: cell-based
From the text: The susceptibility to Fusobacterium varium in antimicrobial agents was examined.

Molecule	resistance of Fusobacterium varium to antimicrobial agent (Fusobacterium varium)	colonic lesions after enema (mice; mice, twenty-four hours after enema)	lesion after injection into the rectum (mice; mouse, injected into the rectum)
[H]/N=C(/N)N[C@H]1[C@H](O)[C@@H](O)[C@H](O[C@@H]2O[C@@H](C)[C@](O)(C=O)[C@H]2O[C@@H]2O[C@@H](CO)[C@H](O)[C@@H](O)[C@@H]2NC)[C@@H](N/C(N)=N\[H])[C@@H]1O [streptomycin]	resistant	–	–
gentamycin	resistant	–	–
CCCC(=O)O [butyric acid]	–	colonic ulcers with crypt abscesses, inflammatory cell infiltration and apoptotic changes	a lesion similar to ulcerative colitis was induced
CC[C@H]1OC(=O)[C@H](C)[C@@H](O[C@H]2C[C@@](C)(OC)[C@@H](O)[C@H](C)O2)[C@H](C)[C@@H](O[C@@H]2O[C@H](C)C[C@H](N(C)C)[C@H]2O)[C@](C)(O)C[C@@H](C)C(=O)[C@H](C)[C@@H](O)[C@]1(C)O [erythromycin]	resistant	–	–
CC[C@H]1OC(=O)[C@H](C)[C@@H](O[C@H]2C[C@@](C)(OC)[C@@H](O)[C@H](C)O2)[C@H](C)[C@@H](O[C@@H]2O[C@H](C)C[C@H](N(C)C)[C@H]2O)[C@](C)(OC)C[C@@H](C)C(=O)[C@H](C)[C@@H](O)[C@]1(C)O [clarithromycin]	resistant	–	–
